Test results: ChEMBL document CHEMBL1681651, “A broad spectrum anticancer nucleoside with selective toxicity against human colon cells in vitro” (2011)

Tests used:
Assay type in all cases: functional
MCF7 = experiment: Growth inhibition of human MCF7 cells after 48 hrs by […] growth inhibition assay; conditions: MCF7, 48 h
SNB-75 = experiment: Growth inhibition of human SNB75 cells assessed as cell growth at 1 mM after 48 hrs by SRB assay; conditions: SNB-75, 48 h, read-out: Activity
SK-MEL-5 = experiment: Growth inhibition of human SK-MEL-5 cells assessed as cell growth at 10 uM after 48 hrs by SRB assay; conditions: SK-MEL-5, 48 h, read-out: Activity
SNB-19 = experiment: Growth inhibition of human SNB19 cells after 48 hrs by […] growth inhibition assay; conditions: SNB-19, 48 h
KM12 = experiment: Growth inhibition of human KM12 cells assessed as cell growth at 100 uM after 48 hrs by SRB assay; conditions: KM12, 48 h, read-out: Activity
DU-145 = experiment: Growth inhibition of human DU145 cells assessed as cell growth at 100 uM after 48 hrs by SRB assay; conditions: DU-145, 48 h, read-out: Activity
MDA-MB-435 = experiment: Growth inhibition of human MDA-MB-435 cells assessed as cell growth at 100 uM after 48 hrs by SRB assay; conditions: MDA-MB-435, 48 h, read-out: Activity
786-0 [1] = experiment: Growth inhibition of human 786-0 cells assessed as cell growth at 0.1 uM after 48 hrs by SRB assay; conditions: 786-0, 48 h, read-out: Activity
SF-295 = experiment: Growth inhibition of human SF295 cells assessed as cell growth at 10 uM after 48 hrs by SRB assay; conditions: SF-295, 48 h, read-out: Activity
SN12C = experiment: Growth inhibition of human SN12C cells assessed as cell growth at 10 uM after 48 hrs by SRB assay; conditions: read-out: Activity
LOX IMVI = experiment: Growth inhibition of human LOXIMVI cells assessed as cell growth at 1 uM after 48 hrs by SRB assay; conditions: read-out: Activity
UACC-257 [2] = experiment: Growth inhibition of human UACC257 cells assessed as cell growth at 100 uM after 48 hrs by SRB assay; conditions: UACC-257, 48 h, read-out: Activity
HOP-62 = experiment: Growth inhibition of human HOP62 cells assessed as cell growth at 100 uM after 48 hrs by SRB assay; conditions: HOP-62, 48 h, read-out: Activity
[3] = Growth inhibition of human […] cells assessed as cell growth at 1 uM after 48 hrs by SRB assay; conditions: read-out: Activity
HOP-92 = experiment: Growth inhibition of human HOP92 cells assessed as cell growth at 0.1 uM after 48 hrs by SRB assay; conditions: HOP-92, 48 h, read-out: Activity
UACC-257 [4] = experiment: Growth inhibition of human UACC257 cells assessed as cell growth at 1 mM after 48 hrs by SRB assay; conditions: UACC-257, 48 h, read-out: Activity
T47D [5] = experiment: Growth inhibition of human T47D cells after 48 hrs by […] growth inhibition assay
M14 = experiment: Growth inhibition of human M14 cells assessed as cell growth at 100 uM after 48 hrs by SRB assay; conditions: M14, 48 h, read-out: Activity
HT-29 [6] = experiment: Growth inhibition of human HT-29 cells assessed as cell growth at 0.1 uM after 48 hrs by SRB assay; conditions: HT-29, 48 h, read-out: Activity
NCI-H522 = experiment: Growth inhibition of human NCI-H522 cells after 48 hrs by […] growth inhibition assay; conditions: NCI-H522, 48 h
NCI-H23 [7] = experiment: Growth inhibition of human NCI-H23 cells assessed as cell growth at 1 uM after 48 hrs by SRB assay; conditions: NCI-H23, 48 h, read-out: Activity
786-0 [8] = experiment: Growth inhibition of human 786-0 cells assessed as cell growth at 10 uM after 48 hrs by SRB assay; conditions: 786-0, 48 h, read-out: Activity
T47D [9] = experiment: Growth inhibition of human T47D cells assessed as cell growth at 1 uM after 48 hrs by SRB assay; conditions: read-out: Activity
CAKI-1 = experiment: Growth inhibition of human Caki1 cells assessed as cell growth at 1 uM after 48 hrs by SRB assay; conditions: CAKI-1, 48 h, read-out: Activity
U-251 = experiment: Growth inhibition of human U251 cells after 48 hrs by […] growth inhibition assay; conditions: U-251, 48 h
NCI-H23 [10] = experiment: Growth inhibition of human NCI-H23 cells assessed as cell growth at 1 mM after 48 hrs by SRB assay; conditions: NCI-H23, 48 h, read-out: Activity
OVCAR-4 = experiment: Growth inhibition of human OVCAR4 cells assessed as cell growth at 100 uM after 48 hrs by SRB assay; conditions: OVCAR-4, 48 h, read-out: Activity
HT-29 [11] = experiment: Growth inhibition of human HT-29 cells assessed as cell growth at 1 mM after 48 hrs by SRB assay; conditions: HT-29, 48 h, read-out: Activity
COLO 205 = experiment: Growth inhibition of human COLO205 cells assessed as cell growth at 1 mM after 48 hrs by SRB assay; conditions: COLO 205, 48 h, read-out: Activity
UACC-62 = experiment: Growth inhibition of human UACC62 cells assessed as cell growth at 0.1 uM after 48 hrs by SRB assay; conditions: UACC-62, 48 h, read-out: Activity
UACC-257 [12] = experiment: Growth inhibition of human UACC257 cells assessed as cell growth at 1 uM after 48 hrs by SRB assay; conditions: UACC-257, 48 h, read-out: Activity
MDA-MB-231 = experiment: Growth inhibition of human MDA-MB-231 cells assessed as cell growth at 1 uM after 48 hrs by SRB assay; conditions: MDA-MB-231, 48 h, read-out: Activity
T47D [13] = experiment: Growth inhibition of human T47D cells assessed as cell growth at 10 uM after 48 hrs by SRB assay; conditions: read-out: Activity
OVCAR-8 = experiment: Growth inhibition of human OVCAR8 cells assessed as cell growth at 1 uM after 48 hrs by SRB assay; conditions: OVCAR-8, 48 h, read-out: Activity
A498 = experiment: Growth inhibition of human A498 cells assessed as cell growth at 10 uM after 48 hrs by SRB assay; conditions: A498, 48 h, read-out: Activity
[14] = read-out: LC50 (the source's name)
[15] = read-out: pLC50 (the source's name) (converted)

Compound: CNC(=O)NC[C@H]1O[C@@H](n2cnc3c(NC(=O)Nc4ccccc4)ncnc32)[C@H](O[Si](C)(C)C(C)(C)C)[C@@H]1CC(=O)N(C)OC
- GI50 (MCF7; read-out: GI50): 5.59 µM
- CC50 (MCF7; [14]): > 100 µM
- TGI (MCF7; read-out: TGI): > 100 µM
- GI50 (MCF7; read-out: pGI50 (converted)): 5.62 µM
- CC50 (MCF7; [15]): > 100 µM
- TGI (MCF7; read-out: pTGI (converted)): > 100 µM
- growth at 1000 µM (SNB-75): 12%
- growth at 10 µM (SK-MEL-5): 89%
- GI50 (SNB-19; read-out: GI50): > 100 µM
- CC50 (SNB-19; [14]): > 100 µM
- TGI (SNB-19; read-out: TGI): > 100 µM
- GI50 (SNB-19; read-out: pGI50 (converted)): > 100 µM
- CC50 (SNB-19; [15]): > 100 µM
- TGI (SNB-19; read-out: pTGI): > 100 µM
- growth at 100 µM (KM12): 62%
- growth at 100 µM (DU-145): 60%
- growth at 100 µM (MDA-MB-435): 51%
- growth at 0.1 µM (786-0 [1]): 95%
- growth at 10 µM (SF-295): 98%
- growth at 10 µM (SN12C): 96%
- growth at 1 µM (LOX IMVI): 96%
- growth at 100 µM (UACC-257 [2]): 65%
- growth at 100 µM (HOP-62): 64%
- growth at 1 µM [3]: 91%
- growth at 0.1 µM (HOP-92): 80%
- growth at 1000 µM (UACC-257 [4]): 22%
- GI50 (T47D [5]; read-out: GI50): 13.9 µM
- CC50 (T47D [5]; [14]): > 100 µM
- TGI (T47D [5]; read-out: TGI): > 100 µM
- GI50 (T47D [5]; read-out: pGI50 (converted)): 13.8 µM
- CC50 (T47D [5]; [15]): > 100 µM
- TGI (T47D [5]; read-out: pTGI (converted)): > 100 µM
- growth at 100 µM (M14): 57%
- growth at 0.1 µM (HT-29 [6]): 104%
- GI50 (NCI-H522; read-out: GI50): 11.1 µM
- CC50 (NCI-H522; [14]): > 100 µM
- TGI (NCI-H522; read-out: TGI): > 100 µM
- GI50 (NCI-H522; read-out: pGI50 (converted)): 11 µM
- CC50 (NCI-H522; [15]): > 100 µM
- TGI (NCI-H522; read-out: pTGI (converted)): > 100 µM
- growth at 1 µM (NCI-H23 [7]): 103%
- growth at 10 µM (786-0 [8]): 93%
- growth at 1 µM (T47D [9]): 89%
- growth at 1 µM (CAKI-1): 72%
- GI50 (U-251; read-out: GI50): 5.66 µM
- CC50 (U-251; [14]): > 100 µM
- TGI (U-251; read-out: TGI): > 100 µM
- GI50 (U-251; read-out: pGI50 (converted)): 5.62 µM
- CC50 (U-251; [15]): > 100 µM
- TGI (U-251; read-out: pTGI (converted)): > 100 µM
- growth at 1000 µM (NCI-H23 [10]): 43%
- growth at 100 µM (OVCAR-4): 60%
- growth at 1000 µM (HT-29 [11]): 17%
- growth at 1000 µM (COLO 205): 1%
- growth at 0.1 µM (UACC-62): 102%
- growth at 1 µM (UACC-257 [12]): 103%
- growth at 1 µM (MDA-MB-231): 104%
- growth at 10 µM (T47D [13]): 84%
- growth at 1 µM (OVCAR-8): 106%
- growth at 10 µM (A498): 87%

Compound: CCOC(=O)C[C@H]1[C@@H](O[Si](C)(C)C(C)(C)C)[C@H](n2cnc3c(NC(=O)Nc4ccccc4)ncnc32)O[C@@H]1CNC(=O)NC
- GI50 (MCF7; read-out: GI50): 3.42 µM
- CC50 (MCF7; [14]): > 100 µM
- TGI (MCF7; read-out: TGI): 45.1 µM
- GI50 (MCF7; read-out: pGI50 (converted)): 3.39 µM
- CC50 (MCF7; [15]): > 100 µM
- TGI (MCF7; read-out: pTGI (converted)): 44.7 µM
- growth at 1000 µM (SNB-75): 22%
- growth at 10 µM (SK-MEL-5): 89%
- GI50 (SNB-19; read-out: GI50): 29 µM
- CC50 (SNB-19; [14]): > 100 µM
- TGI (SNB-19; read-out: TGI): > 100 µM
- GI50 (SNB-19; read-out: pGI50 (converted)): 28.8 µM
- CC50 (SNB-19; [15]): > 100 µM
- TGI (SNB-19; read-out: pTGI): > 100 µM
- growth at 100 µM (KM12): 13%
- growth at 100 µM (DU-145): 24%
- growth at 100 µM (MDA-MB-435): 40%
- growth at 0.1 µM (786-0 [1]): 92%
- growth at 10 µM (SF-295): 88%
- growth at 10 µM (SN12C): 103%
- growth at 1 µM (LOX IMVI): 97%
- growth at 100 µM (UACC-257 [2]): 34%
- growth at 100 µM (HOP-62): 48%
- growth at 1 µM [3]: 75%
- growth at 0.1 µM (HOP-92): 4%
- growth at 1000 µM (UACC-257 [4]): 9%
- GI50 (T47D [5]; read-out: GI50): 2.55 µM
- CC50 (T47D [5]; [14]): > 100 µM
- TGI (T47D [5]; read-out: TGI): > 100 µM
- GI50 (T47D [5]; read-out: pGI50 (converted)): 2.57 µM
- CC50 (T47D [5]; [15]): > 100 µM
- TGI (T47D [5]; read-out: pTGI (converted)): > 100 µM
- growth at 100 µM (M14): 4%
- growth at 0.1 µM (HT-29 [6]): 104%
- GI50 (NCI-H522; read-out: GI50): 4.36 µM
- CC50 (NCI-H522; [14]): > 100 µM
- TGI (NCI-H522; read-out: TGI): 85.7 µM
- GI50 (NCI-H522; read-out: pGI50 (converted)): 4.37 µM
- CC50 (NCI-H522; [15]): > 100 µM
- TGI (NCI-H522; read-out: pTGI (converted)): 85.1 µM
- growth at 1 µM (NCI-H23 [7]): 100%
- growth at 10 µM (786-0 [8]): 86%
- growth at 1 µM (T47D [9]): 89%
- growth at 1 µM (CAKI-1): 95%
- GI50 (U-251; read-out: GI50): 4.69 µM
- CC50 (U-251; [14]): 76 µM
- TGI (U-251; read-out: TGI): 20.9 µM
- GI50 (U-251; read-out: pGI50 (converted)): 4.68 µM
- CC50 (U-251; [15]): 75.9 µM
- TGI (U-251; read-out: pTGI (converted)): 20.9 µM
- growth at 1000 µM (NCI-H23 [10]): 36%
- growth at 100 µM (OVCAR-4): 53%
- growth at 1000 µM (HT-29 [11]): 3%
- growth at 1000 µM (COLO 205): 3%
- growth at 0.1 µM (UACC-62): 100%
- growth at 1 µM (UACC-257 [12]): 102%
- growth at 1 µM (MDA-MB-231): 103%
- growth at 10 µM (T47D [13]): 73%
- growth at 1 µM (OVCAR-8): 100%
- growth at 10 µM (A498): 91%
